Source: patent US20160108027A1, “SUBSTITUTED BENZOXAZOLES” (BAYER PHARMA AKTIENGESELLSCHAFT, priority 2013, published 2016)
pIC50: −log10 of the molar value.

How the values were obtained:
thrombin [1] = target: T1, thrombin (Homo sapiens, UniProt P00734); experiment: Determination of the thrombin-inhibitory activity in plasma samples (ecarin-activated); type: biochemical; details: citrate plasma, ecarin activation, fluorogenic thrombin substrate; in some cases means of individual determinations
Method in brief: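 Citrate plasma activated with ecarin (final 20 mU per reaction) in Ca buffer (Hepes, NaCl, CaCl2, PEG), with compound diluted from DMSO into water. Fluorogenic thrombin substrate at final 50 μmol/l; fluorescence (ex 360/em 465 nm) read each minute for 20 minutes, with buffer-only unstimulated control.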

thrombin [2] = target: T1, thrombin; experiment: Measurement of the thrombin inhibition in buffer; type: biochemical; details: human thrombin 0.06 nmol/l in Tris buffer pH 7.4, 22° C., substrate Boc-Asp(OBzl)-Pro-Arg-AMC; in some cases means of individual determinations
Method in brief: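 Compound pre-incubated 15 min at 22° C with 0.06 nmol/l human thrombin in 50 mmol/l Tris, 100 mmol/l NaCl, 0.1% BSA, pH 7.4, then 5 μmol/l Boc-Asp(OBzl)-Pro-Arg-AMC added for 30 min. AMC fluorescence read at 360/460 nm against DMSO controls; IC50 from concentration–activity curves.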

SMILES | pIC50 (thrombin [1]) | pIC50 (thrombin [2])
COc1cc(C(=O)N2CC(C)NC(=O)C2CC#N)cc2nc(NCc3cc(Cl)ccn3)oc12 (single isomer, unassigned) [Example 92, {1-[(2-{[(4-Chloropyridin-2-yl)methyl]amino}-7-methoxy-1,3-benzoxazol-5-yl)carbonyl]-5-methyl-3-oxopiperazin-2-yl}acetonitrile] | 6.83 | 7.02
COc1cc(C(=O)N2CC(C)(C)OCC2C(C)(C)O)cc2nc(NCc3cc(Cl)ccn3)oc12 (single isomer, unassigned) [Example 93, (2-{[(4-Chloropyridin-2-yl)methyl]amino}-7-methoxy-1,3-benzoxazol-5-yl) [5-(2-hydroxypropan-2-yl)-2,2-dimethylmorpholin-4-yl]methanone] | 7.77 | 8.06
COc1cc(C(=O)N2CC(C)(C)OCC2C2(O)CC2)cc2nc(NCc3cc(Cl)ccn3)oc12 (single isomer, unassigned) [Example 94, (2-{[(4-Chloropyridin-2-yl)methyl]amino}-7-methoxy-1,3-benzoxazol-5-yl) [5-(1-hydroxycyclopropyl)-2,2-dimethylmorpholin-4-yl]methanone] | 7.55 | 7.74
COc1cc(C(=O)N2CC(C)(C)OCC2C(C)O)cc2nc(NCc3cc(Cl)ccn3)oc12 (single isomer, unassigned) [Example 95, (2-{[(4-Chloropyridin-2-yl)methyl]amino}-7-methoxy-1,3-benzoxazol-5-yl) [5-(1-hydroxyethyl)-2,2-dimethylmorpholin-4-yl]methanone] | 7.89 | 8.17
COc1cc(C(=O)N2CC(C)(C)OCC2C(C)O)cc2nc(NCc3cc(Cl)ccn3)oc12 (single isomer, unassigned) [Example 96, (2-{[(4-Chloropyridin-2-yl)methyl]amino}-7-methoxy-1,3-benzoxazol-5-yl) [5-(1-hydroxyethyl)-2,2-dimethylmorpholin-4-yl]methanone] | 7.37 | 7.39
CCO[C@@H]1CC(CO)N(C(=O)c2cc(OC)c3oc(NCc4cc(Cl)ccn4)nc3c2)C1 (stereo partly drawn) [Example 1, (2-{[(4-Chloropyridin-2-yl)methyl]amino}-7-methoxy-1,3-benzoxazol-5-yl)[(4R)-4-ethoxy-2-(hydroxymethyl)pyrrolidin-1-yl]methanone] | 7.60 | 7.82
CCO[C@@H]1CC(CO)N(C(=O)c2cc(OC)c3oc(NC(C)c4cc(Cl)ccn4)nc3c2)C1 (stereo partly drawn) [Example 4, (2-{[1-(4-Chloropyridin-2-yl)ethyl]amino}-7-methoxy-1,3-benzoxazol-5-yl)[(4R)-4-ethoxy-2-(hydroxymethyl)pyrrolidin-1-yl]methanone] | 7.18 | 7.41
COc1cc(C(=O)N2C[C@H](OC3CC3)C[C@H]2C(=O)N2CC(F)(F)C2)cc2nc(NCc3cc(Cl)ccn3)oc12 [Example 10, (2-{[(4-Chloropyridin-2-yl)methyl]amino}-7-methoxy-1,3-benzoxazol-5-yl){(2S,4R)-4-(cyclopropyloxy)-2-[(3,3-difluoroazetidin-1-yl)carbonyl]pyrrolidin-1-yl}methanone] | 7.41 | 7.51
COc1cc(C(=O)N2C[C@H](OC3CC3)C[C@H]2C(=O)N2CC(F)C2)cc2nc(NCc3cc(Cl)ccn3)oc12 [Example 11, (2-{[(4-Chloropyridin-2-yl)methyl]amino}-7-methoxy-1,3-benzoxazol-5-yl){(2S,4R)-4-(cyclopropyloxy)-2-[(3-fluoroazetidin-1-yl)carbonyl]pyrrolidin-1-yl}methanone] | 7.00 | 7.51
COc1cc(C(=O)N2C[C@H](OC3CC3)C[C@H]2CO)cc2nc(NCc3cc(Cl)ccn3)oc12 [Example 12, (2-{[(4-Chloropyridin-2-yl)methyl]amino}-7-methoxy-1,3-benzoxazol-5-yl)[(2S,4R)-4-(cyclopropyloxy)-2-(hydroxymethyl)pyrrolidin-1-yl]methanone] | 8.05 | 8.36
COc1cc(C(=O)N2C[C@H](OC3CC3)C[C@H]2CO)cc2nc(NC(C)c3cc(Cl)ccn3)oc12 (stereo partly drawn) [Example 13, (2-{[1-(4-Chloropyridin-2-yl)ethyl]amino}-7-methoxy-1,3-benzoxazol-5-yl)[(2S,4R)-4-(cyclopropyloxy)-2-(hydroxymethyl)pyrrolidin-1-yl]methanone] | 7.51 | 7.68
COc1cc(C(=O)N2CC(C)(CCO)OCC2CF)cc2nc(NCc3cc(Cl)ccn3)oc12 (stereo not shown) [Example 21, (2-{[(4-Chloropyridin-2-yl)methyl]amino}-7-methoxy-1,3-benzoxazol-5-yl) [5-(fluoromethyl)-2-(2-hydroxyethyl)-2-methylmorpholin-4-yl]methanone] | 7.26 | 8.00
COc1cc(C(=O)N2CC(C)(CC(C)O)OC[C@H]2C)cc2nc(NC(C)c3cc(Cl)ccn3)oc12 (stereo partly drawn) [Example 26, (2-{[1-(4-Chloropyridin-2-yl)ethyl]amino}-7-methoxy-1,3-benzoxazol-5-yl)[(5R)-2-(2-hydroxypropyl)-2,5-dimethylmorpholin-4-yl]methanone] | 7.36 | 8.21
CC[C@@H]1COC(C)(CCO)CN1C(=O)c1cc(OC)c2oc(NCc3cc(Cl)ccn3)nc2c1 (stereo partly shown) [Example 28] | 7.77 | 8.49
COCC1COC(C)(CCO)CN1C(=O)c1cc(OC)c2oc(NCc3cc(Cl)ccn3)nc2c1 (stereo not shown) [Example 30] | 7.19 | 7.60
COc1cc(C(=O)N2CC(C)OCC2C2CC(O)C2)cc2nc(NCc3cc(Cl)ccn3)oc12 (stereo not shown) [Example 46, (2-{[(4-Chloropyridin-2-yl)methyl]amino}-7-methoxy-1,3-benzoxazol-5-yl) [5-(3-hydroxycyclobutyl)-2-methylmorpholin-4-yl]methanone] | 7.64 | 7.85
COc1cc(C(=O)N2CC(C)(CCO)OCC2C(F)F)cc2nc(NCc3cc(Cl)ccn3)oc12 (stereo not shown) [Example 54, (2-{[(4-Chloropyridin-2-yl)methyl]amino}-7-methoxy-1,3-benzoxazol-5-yl) [5-(difluormethyl)-2-(2-hydroxyethyl)-2-methylmorpholin-4-yl]methanone] | 7.46 | 7.96
COc1cc(C(=O)N2CC(C)(C)OC[C@H]2CCO)cc2nc(NCc3cc(Cl)ccn3)oc12 [Example 58, (2-{[(4-Chloropyridin-2-yl)methyl]amino}-7-methoxy-1,3-benzoxazol-5-yl)[(5R)-5-(2-hydroxyethyl)-2,2-dimethylmorpholin-4-yl]methanone] | 7.57 | 7.77
COc1cc(C(=O)N2CC(C)(C)OC[C@H]2CCO)cc2nc(NC(C)c3cc(Cl)ccn3)oc12 (stereo partly drawn) [Example 59, (2-{[1-(4-Chloropyridin-2-yl)ethyl]amino}-7-methoxy-1,3-benzoxazol-5-yl)[(5R)-5-(2-hydroxyethyl)-2,2-dimethylmorpholin-4-yl]methanone] | 7.05 | 7.22
COc1cc(C(=O)N2CC(C)OC[C@@H]2[C@@H](C)O)cc2nc(NCc3cc(Cl)ccn3)oc12 (stereo partly drawn) [Example 68, (2-{[(4-Chloropyridin-2-yl)methyl]amino}-7-methoxy-1,3-benzoxazol-5-yl){(5R)-5-[(1R)-1-hydroxyethyl]-2-methylmorpholin-4-yl}methanone] | 7.14 | 7.23
